# Measurements taken from publication PMC6637425 (ChemMedChem, 2019).
# Where two headings read alike, the source gives them in different places.
# What was measured:
# BACE1 enzyme = BACE1 enzyme (Homo sapiens, UniProt P56817); assay: BACE1 enzyme inhibition, Ki from kinetic data under tight-binding conditions; format: biochemical
# BACE2 enzyme = molecular target: T1, BACE2 enzyme (Homo sapiens, UniProt Q9Y5Z0); assay: BACE2 enzyme inhibition, Ki from kinetic data under tight-binding conditions; format: biochemical; conditions: for selectivity for BACE2 over BACE1: ratio of Ki values
# T1 sequence (Q9Y5Z0 63-518): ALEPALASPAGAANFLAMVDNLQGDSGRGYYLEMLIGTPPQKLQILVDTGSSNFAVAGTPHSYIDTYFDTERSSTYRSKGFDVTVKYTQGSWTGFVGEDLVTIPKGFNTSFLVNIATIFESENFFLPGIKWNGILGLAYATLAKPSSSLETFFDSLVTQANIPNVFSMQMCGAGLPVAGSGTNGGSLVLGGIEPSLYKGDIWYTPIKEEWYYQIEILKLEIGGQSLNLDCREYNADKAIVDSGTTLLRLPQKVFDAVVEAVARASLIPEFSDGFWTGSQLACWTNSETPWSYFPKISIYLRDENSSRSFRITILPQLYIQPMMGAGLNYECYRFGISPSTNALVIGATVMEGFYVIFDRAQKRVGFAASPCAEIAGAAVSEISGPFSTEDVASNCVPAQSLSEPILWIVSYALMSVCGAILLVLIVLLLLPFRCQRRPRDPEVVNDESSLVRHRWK
# [1] = read-out: Ki (nM) BACE1, Table 3
# [2] = read-out: Ki (nM) BACE2, Table 3
# [3] = Ki (nM) BACE1, Table 1, new inhibitors 2f-j
# [4] = Ki (nM) BACE2, Table 1, new inhibitors 2f-j
# [5] = read-out: Ki (nM) BACE1, Table 2
# [6] = read-out: Ki (nM) BACE2, Table 2
# BACE1 enzyme, sequence (P56817 46-501): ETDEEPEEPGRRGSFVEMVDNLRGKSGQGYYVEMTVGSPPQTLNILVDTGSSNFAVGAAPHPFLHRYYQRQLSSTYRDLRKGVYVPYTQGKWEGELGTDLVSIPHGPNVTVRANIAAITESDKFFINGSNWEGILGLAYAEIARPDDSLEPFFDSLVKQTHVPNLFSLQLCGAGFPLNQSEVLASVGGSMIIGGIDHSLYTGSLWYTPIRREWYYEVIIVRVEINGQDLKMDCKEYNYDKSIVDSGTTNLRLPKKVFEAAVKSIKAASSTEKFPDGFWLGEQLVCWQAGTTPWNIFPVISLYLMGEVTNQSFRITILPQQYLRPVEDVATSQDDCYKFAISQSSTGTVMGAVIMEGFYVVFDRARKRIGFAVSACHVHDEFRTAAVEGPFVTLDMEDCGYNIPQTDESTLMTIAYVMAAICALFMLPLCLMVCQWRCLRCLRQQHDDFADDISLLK
smiles,measurement,setting,value
"COc1cccc(CNC[C@@H](O)[C@H](Cc2ccccc2)NC(=O)c2cc(C)cc(C(=O)N(C)C(C)c3nc(C)co3)c2)c1 (mixture of isomers) [inhibitor 3o, N^1-((2S,3R)-3-Hydroxy-4-((3-methoxybenzyl)ammo)-1-phenylbutan-2-yl)-N^3,5-dimethyl-N^3-(1-(4-methyloxazol-2-yl)ethyl)isophthalamide]",Ki,BACE1 enzyme; [1],767 nM
same,selectivity for BACE2 over BACE1,BACE2 enzyme,no appreciable selectivity
same,Ki,BACE2 enzyme; [2],801 nM
"COC[C@H]1CCCN1C(=O)c1cccc(C(=O)N[C@@H](Cc2ccccc2)[C@H](O)CN[C@H](C(=O)NCC(C)C)[C@H](C)O)c1 [inhibitor 2f, N-((2S,3R)-3-Hydroxy-4-(((2S,3S)-3-hydroxy-1-(isobutylamino)-1-oxobutan-2-yl)amino)-1-phenylbutan-2-yl)-3-((R)-2-(methoxymethyl)pyrrolidine-1-carbonyl)benzamide]",Ki,BACE1 enzyme; [3],3020 nM
same,Ki,BACE2 enzyme; [4],1370 nM
"CCC[C@H](O)[C@H](NC[C@@H](O)[C@H](Cc1ccccc1)NC(=O)c1cc(C)cc(C(=O)N2CCC[C@@H]2COC)c1)C(=O)NCC(C)C [inhibitor 2g, N-((2S,3R)-3-Hydroxy-4-(((2S,3S)-3-hydroxy-1-(isobutylamino)-1-oxohexan-2-yl)amino)-1-phenylbutan-2-yl)-3-((R)-2-(methoxymethyl)pyrrolidine-1-carbonyl)-5-methylbenzamide]",Ki,BACE1 enzyme; [3],6.6 nM
same,Ki,BACE2 enzyme; [4],27.9 nM
"Cc1cc(C(=O)N[C@@H](Cc2ccccc2)[C@H](O)CN[C@H](C(=O)NCC(C)C)[C@H](C)O)cc(C(=O)N(C)Cc2nc(C)cs2)c1 [inhibitor 2h, N^1-((2S,3R)-3-Hydroxy-4-(((2S,3S)-3-hydroxy-1-(isobutylamino)-1-oxobutan-2-yl)amino)-1-phenylbutan-2-yl)-N^3,5-dimethyl-N^3-((4-methylthiazol-2-yl)methyl)isophthalamide]",Ki,BACE1 enzyme; [3],176 nM
same,Ki,BACE2 enzyme; [4],96.9 nM
same,selectivity for BACE2 over BACE1,BACE2 enzyme,2 fold
"CCC[C@H](O)[C@H](NC[C@@H](O)[C@H](Cc1ccccc1)NC(=O)c1cccc(C(=O)N(C)Cc2nc(C)cs2)c1)C(=O)NCC(C)C [inhibitor 2i, N^1-((2S,3R)-3-Hydroxy-4-(((2S,3S)-3-hydroxy-1-(isobutylamino)-1-oxohexan-2-yl)amino)-1-phenylbutan-2-yl)-N^3-methyl-N^3-((4-methylthiazol-2-yl)methyl)isophthalamide]",Ki,BACE1 enzyme; [3],33.1 nM
same,Ki,BACE2 enzyme; [4],51.1 nM
"CCC[C@H](O)[C@H](NC[C@@H](O)[C@H](Cc1ccccc1)NC(=O)c1cc(C)cc(C(=O)N(C)Cc2nc(C)cs2)c1)C(=O)NCC(C)C [inhibitor 2j, N^1-((2S,3R)-3-Hydroxy-4-(((2S,3S)-3-hydroxy-1-(isobutylamino)-1-oxohexan-2-yl)amino)-1-phenylbutan-2-yl)-N^3,5-dimethyl-N^3-((4-methylthiazol-2-yl)methyl)isophthalamide]",Ki,BACE1 enzyme; [3],34.2 nM
same,Ki,BACE2 enzyme; [4],25.3 nM
"COc1cccc([C@@H](NC[C@@H](O)[C@H](Cc2ccccc2)NC(=O)c2cc(C(=O)N[C@H](C)c3ccccc3)cc(N(C)S(C)(=O)=O)c2)[C@H](C)O)c1 [inhibitor 3a, N^1-((2S,3R)-3-Hydroxy-4-(((1R,2S)-2-hydroxy-1-(3-methoxyphenyl)propyl)ammo)-1-phenylbutan-2-yl)-5-(N-methylmethylsulfonamido)-N^3-((R)-1-phenylethyl)isophthalamide]",Ki,BACE1 enzyme; read-out: BACE1 Ki,205 nM
same,Ki,BACE1 enzyme; [5],205 nM
same,Ki,BACE2 enzyme; read-out: BACE2 Ki,731 nM
same,Ki,BACE2 enzyme; [6],731 nM
"COc1cccc([C@@H](NC[C@@H](O)[C@H](Cc2ccccc2)NC(=O)c2cc(C(=O)N(C)[C@H](C)c3ccccc3)cc(N(C)S(C)(=O)=O)c2)[C@H](C)O)c1 [inhibitor 3b, N^1-((2S,3R)-3-Hydroxy-4-(((1R,2S)-2-hydroxy-1-(3-methoxyphenyl)propyl)ammo)-1-phenylbutan-2-yl)-N^3-methyl-5-(N-methylmethylsulfonamido)-N^3-((R)-1-phenylethyl)isophthalamide]",Ki,BACE1 enzyme; [5],4850 nM
same,Ki,BACE2 enzyme; [6],479 nM
"COc1cccc([C@@H](NC[C@@H](O)[C@H](Cc2ccccc2)NC(=O)c2cccc(C(=O)N(C)[C@H](C)c3ccccc3)c2)[C@H](C)O)c1 [inhibitor 3c, N^1-((2S,3R)-3-Hydroxy-4-(((1R,2S)-2-hydroxy-1-(3-methoxyphenyl)propyl)ammo)-1-phenylbutan-2-yl)-N^3-methyl-N^3-((R)-1-phenylethyl)isophthalamide]",Ki,BACE1 enzyme; [5],51300 nM
same,selectivity for BACE2 over BACE1,BACE2 enzyme,54 fold
same,Ki,BACE2 enzyme; [6],950 nM
"COc1cccc([C@@H](NC[C@@H](O)[C@H](Cc2ccccc2)NC(=O)c2cc(C)cc(C(=O)N(C)[C@H](C)c3ccccc3)c2)[C@H](C)O)c1 [inhibitor 3d, N^1-((2S,3R)-3-Hydroxy-4-(((1R,2S)-2-hydroxy-1-(3-methoxyphenyl)propyl)amino)-1-phenylbutan-2-yl)-N^3,5-dimethyl-N^3-((R)-1-phenylethyl)isophthalamide]",Ki,"BACE1 enzyme; Ki (nM) BACE1, Table 2",16200 nM
same,Ki,"BACE2 enzyme; Ki (nM) BACE2, Table 2",480 nM
same,selectivity for BACE2 over BACE1,BACE2 enzyme,34 fold
"CCC[C@H](O)[C@H](NC[C@@H](O)[C@H](Cc1ccccc1)NC(=O)c1cccc(C(=O)N(C)[C@H](C)c2ccccc2)c1)c1cccc(OC)c1 [inhibitor 3e, N^1-((2S,3R)-3-Hydroxy-4-(((1R,2S)-2-hydroxy-1-(3-methoxyphenyl)pentyl)amino)-1-phenylbutan-2-yl)-N^3-methyl-N^3-((R)-1-phenylethyl)isophthalamide]",Ki,"BACE1 enzyme; Ki (nM) BACE1, Table 2",38600 nM
same,Ki,"BACE2 enzyme; Ki (nM) BACE2, Table 2",243 nM
same,selectivity for BACE2 over BACE1,BACE2 enzyme,159 fold
"CCC[C@H](O)[C@H](NC[C@@H](O)[C@H](Cc1ccccc1)NC(=O)c1cc(C)cc(C(=O)N(C)[C@H](C)c2ccccc2)c1)c1cccc(OC)c1 [inhibitor 3f, N^1-((2S,3R)-3-Hydroxy-4-(((1R,2S)-2-hydroxy-1-(3-methoxyphenyl)pentyl)ammo)-1-phenylbutan-2-yl)-N^3,5-dimethyl-N^3-((R)-1-phenylethyl)isophthalamide]",Ki,BACE1 enzyme; [5],8800 nM
same,selectivity for BACE2 over BACE1,BACE2 enzyme,62 fold
same,Ki,BACE2 enzyme; [6],141 nM
"CCC[C@H](O)[C@H](NC[C@@H](O)[C@H](Cc1ccccc1)NC(=O)c1cccc(C(=O)N(C)[C@H](C)c2ccccc2)c1)c1ccccc1 [inhibitor 3g, N^1-((2S,3R)-3-Hydroxy-4-(((1R,2S)-2-hydroxy-1-phenylpentyl)ammo)-1-phenylbutan-2-yl)-N^3-methyl-N^3-((R)-1-phenylethyl)isophthalamide]",Ki,BACE1 enzyme; [5],42500 nM
same,Ki,BACE2 enzyme; [6],2550 nM
"CCC[C@H](O)[C@H](NC[C@@H](O)[C@H](Cc1ccccc1)NC(=O)c1cc(C)cc(C(=O)N(C)[C@H](C)c2ccccc2)c1)c1ccccc1 [inhibitor 3h, N^1-((2S,3R)-3-Hydroxy-4-(((1R,2S)-2-hydroxy-1-phenylpentyl)amino)-1-phenylbutan-2-yl)-N3,5-dimethyl-N^3-((R)-1-phenylethyl)isophthalamide]",Ki,"BACE1 enzyme; Ki (nM) BACE1, Table 2",18100 nM
same,Ki,"BACE2 enzyme; Ki (nM) BACE2, Table 2",905 nM
"COc1cccc(CNC[C@@H](O)[C@H](Cc2ccccc2)NC(=O)c2cccc(C(=O)N(C)[C@H](C)c3ccccc3)c2)c1 [inhibitor 3i, N^1-((2S,3R)-3-Hydroxy-4-((3-methoxybenzyl)ammo)-1-phenylbutan-2-yl)-N^3-methyl-N^3-((R)-1-phenylethyl)isophthalamide]",Ki,BACE1 enzyme; [1],2080 nM
same,Ki,BACE2 enzyme; read-out: BACE2 Ki,39.4 nM
same,Ki,BACE2 enzyme; [2],39.5 nM
"COc1cccc(CNC[C@@H](O)[C@H](Cc2ccccc2)NC(=O)c2cc(C)cc(C(=O)N(C)[C@H](C)c3ccccc3)c2)c1 [inhibitor 3j, N^1-((2S,3R)-3-Hydroxy-4-((3-methoxybenzyl)ammo)-1-phenylbutan-2-yl)-N3,5-dimethyl-N^3-((R)-1-phenylethyl)isophthalamide]",Ki,BACE1 enzyme; [1],837 nM
same,selectivity for BACE2 over BACE1,BACE2 enzyme,~60 fold
same,Ki,BACE2 enzyme; [2],14 nM
"C[C@H](c1ccccc1)N(C)C(=O)c1cccc(C(=O)N[C@@H](Cc2ccccc2)[C@H](O)CNCc2cccc(C(F)(F)F)c2)c1 [inhibitor 3k, N^1-((2S,3R)-3-Hydroxy-1-phenyl-4-((3-(trifluoromethyl)benzyl)amino)butan-2-yl)-N^3-methyl-N^3-((R)-1-phenylethyl)isophthalamide]",Ki,"BACE1 enzyme; Ki (nM) BACE1, Table 3",1350 nM
same,Ki,BACE2 enzyme; BACE2 Ki,35.7 nM
same,Ki,"BACE2 enzyme; Ki (nM) BACE2, Table 3",35.7 nM
same,selectivity for BACE2 over BACE1,BACE2 enzyme,37 fold
"Cc1cc(C(=O)N[C@@H](Cc2ccccc2)[C@H](O)CNCc2cccc(C(F)(F)F)c2)cc(C(=O)N(C)[C@H](C)c2ccccc2)c1 [inhibitor 3l, N^1-((2S,3R)-3-Hydroxy-1-phenyl-4-((3-(trifluoromethyl)benzyl)ammo)butan-2-yl)-N^3,5-dimethyl-N^3-((R)-1-phenylethyl)isophthalamide]",Ki,BACE1 enzyme; [1],815 nM
same,selectivity for BACE2 over BACE1,BACE2 enzyme,over 500 fold
same,Ki,BACE2 enzyme; [2],1.6 nM
"COc1cccc(CNC[C@@H](O)[C@H](Cc2ccccc2)NC(=O)c2cccc(C(=O)N(C)Cc3nc(C)co3)c2)c1 [inhibitor 3m, N^1-((2S,3R)-3-Hydroxy-4-((3-methoxybenzyl)amino)-1-phenylbutan-2-yl)-N^3-methyl-N^3-((4-methyloxazol-2-yl)methyl)isophthalamide]",Ki,"BACE1 enzyme; Ki (nM) BACE1, Table 3",68.8 nM
same,selectivity for BACE1 against BACE2,BACE1 enzyme; ratio of Ki values,over 100 fold
same,Ki,"BACE2 enzyme; Ki (nM) BACE2, Table 3",7330 nM
